Key:
[1] = target: T1, Connexin46 (Cx46) hemichannel (Homo sapiens, UniProt Q9Y6H8); assay: DAPI uptake dose response in Cx46tGFP HeLa cells; whole-cell patch clamp ([…] KI04 decreased currents); type: cell-based
T1 construct: gene GJA3; human Cx46tGFP (turbo GFP fusion) expressed in HeLa cells

[2] = target: T1, Connexin46 (Cx46) hemichannel; assay: DAPI uptake dose response in Cx46tGFP HeLa cells; type: cell-based

Row | IC50 [1] [µM] | Structure (SMILES) | IC50 [2] [µM]
1 | ~7.7 | CCCCCCCCCCCC(=O)NC[C@@H]1O[C@H](O[C@H]2[C@H](O)[C@@H](O[C@H]3O[C@H](CO)[C@@H](O)[C@H](N)[C@H]3O)[C@H](N)C[C@@H]2N)[C@H](O)[C@@H](O)[C@@H]1O [KI04] | –
2 | – | NC[C@H]1O[C@H](O[C@H]2[C@H](O)[C@@H](O[C@H]3O[C@H](CO)[C@@H](O)[C@H](N)[C@H]3O)[C@H](N)C[C@@H]2N)[C@H](O)[C@@H](O)[C@@H]1O [kanamycin] | 1.7

Reference: PMC10046693, “KI04 an Aminoglycosides-Derived Molecule Acts as an Inhibitor of Human Connexin46 Hemichannels Expressed in HeLa Cells” (Biomolecules, 2023)
